According to ChEMBL document CHEMBL3885861, “Open TG-GATES”:

Species on record: Rattus norvegicus
Assay: Open TG-GATES - Regimen: Single
Format: toxicity, organism-based, Sprague-Dawley
Design: regimen Single, gender Male, age 6 weeks
Details: in vivo, po, 300 mg/kg, route gavage, dose level Middle; for APTT / Bas / Eos / Fbg / Hb / Ht / Lym / MCH / MCHC / MCV / Mono / Neu / PT / Plat / RBC / Ret / WBC: tissue Blood; for KIDNEY_L / KIDNEY_R / KIDNEY_TOTAL: tissue Kidney; for LIVER: tissue Liver; for A/G / ALP / ALT / AST / BUN / CRE / Ca / Cl / DBIL / GLC / IP / K / LDH / Na / PL / RALB / TBIL / TC / TG / TP / gamma-GTP: tissue Plasma

With CCOC(=O)CCC(=O)O[C@H]1[C@H](O[C@@H]2[C@@H](C)[C@H](O[C@H]3C[C@@](C)(OC)[C@@H](O)[C@H](C)O3)[C@@H](C)C(=O)O[C@H](CC)[C@@](C)(O)[C@H](O)[C@@H](C)C(=O)[C@H](C)C[C@@]2(C)O)O[C@H](C)C[C@@H]1N(C)C [ERYTHROMYCIN ETHYLSUCCINATE] the TERMINAL_BW (3 h) was 220.4 g, the APTT (3 h) was 21.7 s and the Bas (3 h) was 0%. For the same compound, the Eos (3 h) was 1%, the Fbg (3 h) was 294.4 mg/dL and the Hb (3 h) was 12.8 g/dL. The Ht (3 h) was 38.6%, the Lym (3 h) was 75.4% and the MCH (3 h) was 21.2 pg. For the same compound, the MCHC (3 h) was 33.2%, the MCV (3 h) was 63.8 fL and the Mono (3 h) was 2.6%. For the same compound, the Neu (3 h) was 19.8%, the PT (3 h) was 15.7 s and the Plat (3 h) was 123.6 x10_4/uL. For the same compound, the RBC (3 h) was 606.2 x10_4/ul, the Ret (3 h) was 7.9% and the WBC (3 h) was 80.1 x10_2/uL. It also gave a KIDNEY_L (3 h) of 1 g, a KIDNEY_R (3 h) of 1 g and a KIDNEY_TOTAL (3 h) of 2.1 g. It also gave an LIVER (3 h) of 10 g, an A/G (3 h) of 1.2 and an ALP (3 h) of 1689.6 IU/L. For the same compound, the ALT (3 h) was 42.4 IU/L, the AST (3 h) was 74.2 IU/L and the BUN (3 h) was 11.6 mg/dL. It also gave a CRE (3 h) of 0.2 mg/dL, a Ca (3 h) of 10.5 mg/dL and a Cl (3 h) of 103.8 meq/L. It also gave a DBIL (3 h) of 0.004 mg/dL, a GLC (3 h) of 179 mg/dL and an IP (3 h) of 9.1 mg/dL. The K (3 h) was 4.1 meq/L, the LDH (3 h) was 141 IU/L and the Na (3 h) was 138.6 meq/L. For the same compound, the PL (3 h) was 149 mg/dL, the RALB (3 h) was 2.9 g/dL and the TBIL (3 h) was 0.026 mg/dL. The TC (3 h) was 76.4 mg/dL, the TG (3 h) was 66.4 mg/dL and the TP (3 h) was 5.3 g/dL. It also gave a gamma-GTP (3 h) of 1 IU/L, a TERMINAL_BW (6 h) of 216.3 g and an APTT (6 h) of 22.3 s. It also gave a Bas (6 h) of 0%, an Eos (6 h) of 0.8% and a Fbg (6 h) of 318.4 mg/dL. The Hb (6 h) was 13.1 g/dL, the Ht (6 h) was 39.8% and the Lym (6 h) was 77.8%. The MCH (6 h) was 20.8 pg, the MCHC (6 h) was 32.8% and the MCV (6 h) was 63.5 fL. It also gave a Mono (6 h) of 3.8%, a Neu (6 h) of 16.4% and a PT (6 h) of 15.7 s. The Plat (6 h) was 115 x10_4/uL, the RBC (6 h) was 627.8 x10_4/ul and the Ret (6 h) was 8.7%. For the same compound, the WBC (6 h) was 87.9 x10_2/uL, the KIDNEY_L (6 h) was 1 g and the KIDNEY_R (6 h) was 1 g. It also gave a KIDNEY_TOTAL (6 h) of 2 g, an LIVER (6 h) of 9.2 g and an A/G (6 h) of 1.2. The ALP (6 h) was 1767.2 IU/L, the ALT (6 h) was 43.4 IU/L and the AST (6 h) was 72.8 IU/L. The BUN (6 h) was 10.8 mg/dL, the CRE (6 h) was 0.2 mg/dL and the Ca (6 h) was 10.6 mg/dL. It also gave a Cl (6 h) of 104 meq/L, a DBIL (6 h) of 0 mg/dL and a GLC (6 h) of 180 mg/dL. The IP (6 h) was 10.1 mg/dL, the K (6 h) was 4.2 meq/L and the LDH (6 h) was 160.2 IU/L. The Na (6 h) was 138.2 meq/L, the PL (6 h) was 140 mg/dL and the RALB (6 h) was 2.9 g/dL. The TBIL (6 h) was 0.032 mg/dL, the TC (6 h) was 75.6 mg/dL and the TG (6 h) was 50.6 mg/dL. The TP (6 h) was 5.4 g/dL, the gamma-GTP (6 h) was 1.2 IU/L and the TERMINAL_BW (9 h) was 210.5 g. It also gave an APTT (9 h) of 22.3 s, a Bas (9 h) of 0% and an Eos (9 h) of 1.2%. For the same compound, the Fbg (9 h) was 318.4 mg/dL, the Hb (9 h) was 13.4 g/dL and the Ht (9 h) was 40.5%. It also gave a Lym (9 h) of 79%, an MCH (9 h) of 20.8 pg and an MCHC (9 h) of 33%. It also gave an MCV (9 h) of 62.9 fL, a Mono (9 h) of 2.6% and a Neu (9 h) of 15.8%. The PT (9 h) was 15.6 s, the Plat (9 h) was 125.3 x10_4/uL and the RBC (9 h) was 645.4 x10_4/ul. It also gave a Ret (9 h) of 8%, a WBC (9 h) of 77.8 x10_2/uL and a KIDNEY_L (9 h) of 1 g. The KIDNEY_R (9 h) was 1 g, the KIDNEY_TOTAL (9 h) was 2 g and the LIVER (9 h) was 8.8 g. It also gave an A/G (9 h) of 1.2, an ALP (9 h) of 1386.8 IU/L and an ALT (9 h) of 33.8 IU/L. It also gave an AST (9 h) of 62.6 IU/L, a BUN (9 h) of 10 mg/dL and a CRE (9 h) of 0.2 mg/dL. It also gave a Ca (9 h) of 10.5 mg/dL, a Cl (9 h) of 105.2 meq/L and a DBIL (9 h) of 0 mg/dL. The GLC (9 h) was 174.4 mg/dL, the IP (9 h) was 9.4 mg/dL and the K (9 h) was 4.2 meq/L. For the same compound, the LDH (9 h) was 170.6 IU/L, the Na (9 h) was 138.8 meq/L and the PL (9 h) was 136 mg/dL. It also gave an RALB (9 h) of 3 g/dL, a TBIL (9 h) of 0.03 mg/dL and a TC (9 h) of 75.2 mg/dL. It also gave a TG (9 h) of 49.8 mg/dL, a TP (9 h) of 5.5 g/dL and a gamma-GTP (9 h) of 1.2 IU/L. The TERMINAL_BW (24 h) was 226.7 g, the APTT (24 h) was 20.4 s and the Bas (24 h) was 0%. The Eos (24 h) was 1%, the Fbg (24 h) was 319.8 mg/dL and the Hb (24 h) was 13.7 g/dL. It also gave a Ht (24 h) of 41.1%, a Lym (24 h) of 85% and an MCH (24 h) of 21.1 pg. For the same compound, the MCHC (24 h) was 33.4%, the MCV (24 h) was 63.3 fL and the Mono (24 h) was 2.4%. The Neu (24 h) was 10.8%, the PT (24 h) was 16 s and the Plat (24 h) was 117.1 x10_4/uL. For the same compound, the RBC (24 h) was 649.4 x10_4/ul, the Ret (24 h) was 7% and the WBC (24 h) was 88.2 x10_2/uL. For the same compound, the KIDNEY_L (24 h) was 1 g, the KIDNEY_R (24 h) was 1 g and the KIDNEY_TOTAL (24 h) was 2 g. For the same compound, the LIVER (24 h) was 9.8 g, the A/G (24 h) was 1.2 and the ALP (24 h) was 1484 IU/L. For the same compound, the ALT (24 h) was 37.4 IU/L, the AST (24 h) was 69.6 IU/L and the BUN (24 h) was 15.4 mg/dL. For the same compound, the CRE (24 h) was 0.1 mg/dL, the Ca (24 h) was 10.4 mg/dL and the Cl (24 h) was 106.8 meq/L. It also gave a DBIL (24 h) of 0.002 mg/dL, a GLC (24 h) of 195.4 mg/dL and an IP (24 h) of 8.1 mg/dL. For the same compound, the K (24 h) was 4.3 meq/L, the LDH (24 h) was 174.8 IU/L and the Na (24 h) was 142 meq/L. For the same compound, the PL (24 h) was 135.2 mg/dL, the RALB (24 h) was 2.9 g/dL and the TBIL (24 h) was 0.016 mg/dL. The TC (24 h) was 75.2 mg/dL, the TG (24 h) was 87.6 mg/dL and the TP (24 h) was 5.4 g/dL. The gamma-GTP (24 h) was 1.2 IU/L.
